Measured values from patent US6596064B2, “Biocidal-antifouling agents with low ecotoxicity index” (Luigi Stoppani S.p.A., priority 1999, dated 2003).

Legend:
[1] = test system: vegetation and micro-organisms (algae, bryozoas, acorn barnacles, polichaetas); assay: Example 3: antifouling paints on fibreglass panels immersed in seawater (dockyard of Genoa), comparison with MSB and Ciclor 98; details: for antifouling activity: 5% in paint, not associated with Cu2O (panels P4, P5, N), MBP and MTB more than Ciclor 98 (panel P7); for 2^ Controls after a four month exposure: 0.8% in hard-matrix antifouling paint, +Cu2O per Table V (panels P1, P2), seawater, Genoa; for antifouling effectiveness: in association with Cu2O (panels P1, P2 and P8), synergistic action
From the text: The compounds MBP and MTB were examined in different percentages, in hard-matrix antifouling formulations. The tests included the use of Ciclor 98, the use of the menadione sodium bisulphite (MSB) and a control panel (untreated), as is shown in Table V:
The prepared paints were applied to the fibreglass panels previously treated with a coating of epoxy paint and then immersed in seawater (dockyard of Genoa, Italy, 21/7/1999).
To determine the deposition or formation of vegetation and micro-organisms, both qualitatively and quantitatively, and to evaluate the antifouling activity of the samples, two different controls were carried out after two months (1^control) and after 4 months (2^control).

[2] = test system: vegetation and micro-organisms (algae, serpulidae, acorn barnacles, bryozoas); assay: Example 1: antifouling paints on fibreglass panels immersed in seawater (dockyard of La Spezia); details: 5% in hard-matrix antifouling paint, +Cu2O (panels P34, P35)
From the text: The compounds MBP and MTB were examined in different percentages, singularly and/or in combination, in hard-matrix antifouling formulations containing or not containing copper, as reported in Table I:
(§1) The different paints were applied to the fibreglass panels previously treated with a coating of epoxy paint and then immersed in seawater (dockyard of La Spezia, Italy, 9/5/2000). To determine the deposition or formation of vegetation and micro-organisms, both qualitatively and quantitatively, and to evaluate the antifouling activity of the samples, two different controls were carried out after two months (1^control) and after six months (2^control).

[3] = test system: vegetation and micro-organisms (algae, bryozoas, acorn barnacles, polichaetas); assay: Example 2: antifouling paints on fibreglass panels immersed in seawater (dockyard of Genoa), comparison with Ciclor 98; details: for 2^ Controls after a four month exposure: 5% in hard-matrix antifouling paint, no copper (panels P2, P3, P4), seawater, Genoa; for antifouling activity compared to commercial antifouling product Ciclor 98: hard-matrix paints, no copper, seawater Genoa
From the text: The compounds MBP and MTB were examined in different percentages, in hard-matrix antifouling formulations. The tests included the use of a common commercial antifouling product, Ciclor 98, which contains […] as active ingredient, largely used in the formulation of yatch paints, and a control panel (untreated, without biocide), as it is shown in Table III:
as §1, with “The prepared” for “The different”, “of Genoa,” for “of La Spezia,”, “Italy, 21/7/1999).” for “Italy, 9/5/2000).”, “after 4” for “after six”

SMILES	antifouling activity [1]	2^ Control after a six month exposure [2]	2^ Controls after a four month exposure [1]	antifouling effectiveness [1]	2^ Controls after a four month exposure [3]	antifouling activity compared to commercial antifouling product Ciclor 98 [3]
CC1(S(=O)(=O)[O-])CC(=O)c2ccccc2C1=O.[Na+] (stereo not shown) [MSB, menadione sodium bisulphite, reference compound]	did not show any antifouling activity	–	–	–	–	–
C1CNCCN1.CC1(S(=O)(=O)O)CC(=O)c2ccccc2C1=O.CC1(S(=O)(=O)O)CC(=O)c2ccccc2C1=O (stereo not shown) [MBP, menadione (bis) piperazine bisulfite]	excellent antifouling activity	A few green algae	Clean	excellent antifouling effectiveness	Clean	increased antifouling activity
CC1(S(=O)(=O)O)CC(=O)c2ccccc2C1=O.Nc1nc(N)nc(N)n1 (stereo not shown) [MTB, menadione triaminotriazine bisulfite]	excellent antifouling activity	A few green algae	Clean	excellent antifouling effectiveness	Clean	increased antifouling activity
